One data set has as its system Typhlodromus pyri. Description: LR50; higher = less toxic. The following applies: not reported; mortality.
In the next data set the test system is Aphidius rhopalosiphi. The data set can be described thus: LR50; higher = less toxic. Conditions: not reported; mortality.
The test system of another data set is Rattus norvegicus. Conditions: reproduction developmental; body weight.
The test system of another data set is Hyalella azteca. Conditions: acute; duration: 48 hours; mortality.
Another data set deals with Plant. Conditions: not reported.
The test system of another data set is Folsomia candida. Conditions: chronic/long-term.
A further data set deals with Neomysis kadiakensis. The following applies: chronic/long-term; duration: 28 days.
A further data set relates to Canidae. Conditions: chronic; duration: 1 years; oral; Dog Other; clinical signs.
The next data set deals with Mus musculus. Conditions: acute; oral.
In another data set the test system is Colinus virginianus. The following applies: acute; oral; diet.
Another data set concerns Bibionidae. Conditions: chronic/long-term; duration: 28 days.
A further data set relates to Leuciscus idus. Conditions: acute; duration: 96 hours; mortality.
In a further data set the test system is Apis mellifera. The following applies: acute, mortality.
The next data set deals with Pimephales promelas. The following applies: chronic/long-term; duration: 300 days.

In brackets after ≈: the same amount, converted by molar mass. Several values for one entry are separate records, joined by “and”; a condition that tells them apart may be missing. Equal entries are not always repeated.

As for `CC1(C)[C@H](/C=C(\Cl)C(F)(F)F)[C@@H]1C(=O)O[C@@H](C#N)c1cccc(Oc2ccccc2)c1` [lambda-Cyhalothrin], the LR50 in the data set with Typhlodromus pyri was found to be 0.0037 g/ha; in the data set on Aphidius rhopalosiphi it was 1.06 g/ha. Also, the NOAEL (commonly the highest tested level that showed no adverse finding) was 0.5 mg/kg-day and 0.25 mg/kg-day with Rattus norvegicus; 0.5 mg/kg-day in the data set on Canidae. Moreover, the LC50 in the data set on Hyalella azteca was 0.0019 ng/mL (≈ 0.00422 nM); with Tagia sp. (acute, mortality), greater than 500 mg/kg; with Leuciscus idus it was 0.078 ng/mL (≈ 0.173 nM). For the same compound, the NOEC in the data set with Plant amounted to 7.5 g/ha; in the data set with Folsomia candida, 2.73 mg/kg; in the data set with Neomysis kadiakensis it was 0.00022 µg/L; with Tagia sp. (chronic/long-term), 3.12 mg/kg; in the data set with Bibionidae, 0.13 µg/L; with Anas platyrhynchos (reproductive), 3.3 mg/kg-day. Further, the NOEC with Pimephales promelas came out at 0.031 µg/L. The LD50 was 20 mg/kg-day in the data set with Mus musculus; greater than 530 mg/kg-day with Colinus virginianus; 3950 mg/kg-day in the data set on Anas platyrhynchos (acute, oral, unspecified); 0.038 µg/piece in the data set on Apis mellifera (dermal); 0.91 µg/piece in the data set on Apis mellifera (oral, unspecified).

The values are drawn from EPA's ToxValDB 9.5 (doi:10.2903/j.efsa.2014.3677).
